ChEMBL document CHEMBL4811240, “Discovery of N-substituted sulfamoylbenzamide derivatives as novel inhibitors of STAT3 signaling pathway based on Niclosamide” (Eur J Med Chem, 2021)
Calls of active or inactive are those of the source. No cut-off for these calls is given here.

What was measured:
MDA-MB-231 [1] = test: Antiproliferative activity against human MDA-MB-231 cells assessed as inhibition of cell viability at 10 uM after 48 hrs by MTT assay relative to control; type: functional
HCT-116 [2] = test: Antiproliferative activity against human HCT116 cells assessed as inhibition of cell viability at 10 uM after 48 hrs by MTT assay relative to control; type: functional
SW480 = test: Antiproliferative activity against human SW480 cells assessed as inhibition of cell viability at 10 uM after 48 hrs by MTT assay relative to control; type: functional
L3.6pl = test: Antiproliferative activity against human L3.6 cells assessed as inhibition of cell viability at 10 uM after 48 hrs by MTT assay relative to control; type: functional
MDA-MB-231 [3] = test: Antiproliferative activity against human MDA-MB-231 cells assessed as inhibition of cell viability after 48 hrs by MTT assay; type: functional, cell-based; conditions: MDA-MB-231, 48 h
HCT-116 [4] = test: Antiproliferative activity against human HCT-116 cells assessed as inhibition of cell viability after 48 hrs by MTT assay; type: functional, cell-based; conditions: HCT-116, 48 h
[5] = test system: Epidermal growth factor receptor (Homo sapiens), P00533 [T790M]; test: Inhibition of EGFR T790M mutant (669 to 1210 residues) (unknown origin) expressed in Sf21 cells at 10 uM preincubated for 10 mins followed by peptide substrate addition relative to control
[6] = biological target: Tyrosine-protein kinase JAK1 (Homo sapiens) (UniProt P23458); test: Inhibition of JAK1 (850 to 1154 residues) (unknown origin) expressed in Sf21 cells at 10 uM preincubated for 10 mins followed by peptide substrate addition relative to control
[7] = biological target: Tyrosine-protein kinase JAK3 (Homo sapiens) (UniProt P52333); test: Inhibition of N-terminal His-tagged JAK3 (795 to 1124 residues) (unknown origin) expressed in Sf21 cells at 10 uM preincubated for 10 mins followed by peptide substrate addition relative to control
[8] = biological target: Non-receptor tyrosine-protein kinase TYK2 (Homo sapiens) (UniProt P29597); test: Inhibition of TYK2 (871 to 1187 residues) (unknown origin) expressed in Sf21 cells at 10 uM preincubated for 10 mins followed by peptide substrate addition relative to control
[9] = biological target: Fibroblast growth factor receptor 1 (Homo sapiens) (UniProt P11362); test: Inhibition of FGFR1 (398 to 822 residues) (unknown origin) expressed in Sf21 cells at 10 uM preincubated for 10 mins followed by peptide substrate addition relative to control
[10] = biological target: RAC-alpha serine/threonine-protein kinase (Homo sapiens) (UniProt P31749); test: Inhibition of human N-terminal His-tagged full length AKT1 (1 to 480 residues) expressed in Sf9 cells at 10 uM preincubated for 10 mins followed by peptide substrate addition relative to control
[11] = biological target: RAC-beta serine/threonine-protein kinase (Homo sapiens) (UniProt P31751); test: Inhibition of human N-terminal His-tagged full length AKT2 expressed in Sf9 cells at 10 uM preincubated for 10 mins followed by peptide substrate addition relative to control
[12] = biological target: Vascular endothelial growth factor receptor 1 (Homo sapiens) (UniProt P17948); test: Inhibition of recombinant human GST-tagged FLT1 (781 to 1338 residues) expressed in baculovirus expression system at 10 uM preincubated for 10 mins followed by peptide substrate addition relative to control
[13] = biological target: Receptor-type tyrosine-protein kinase FLT3 (Homo sapiens) (UniProt P36888); test: Inhibition of recombinant human His-tagged FLT3 expressed in baculovirus expression system at 10 uM preincubated for 10 mins followed by peptide substrate addition relative to control
[14] = biological target: Dual specificity mitogen-activated protein kinase kinase 1 (Homo sapiens) (UniProt Q02750); test: Inhibition of N-terminal GST-tagged full length MEK1 (1 to 393 residues) (unknown origin) expressed in Sf21 cells at 10 uM preincubated for 10 mins followed by peptide substrate addition relative to control
[15] = biological target: Cyclin-dependent kinase 7 (Homo sapiens) (UniProt P50613); test: Inhibition of CDK7 (unknown origin) at 10 uM preincubated for 10 mins followed by peptide substrate addition relative to control
[16] = biological target: Insulin-like growth factor 1 receptor (Homo sapiens) (UniProt P08069); test: Inhibition of IGF1R (959 to 1367 residues) (unknown origin) expressed in Sf21 cells at 10 uM preincubated for 10 mins followed by peptide substrate addition relative to control
[17] = biological target: Inhibitor of nuclear factor kappa-B kinase subunit beta (Homo sapiens) (UniProt O14920); test: Inhibition of IKKbeta (1 to 662 residues) (unknown origin) expressed in Sf21 cells at 10 uM preincubated for 10 mins followed by peptide substrate addition relative to control
[18] = biological target: Mitogen-activated protein kinase 9 (Homo sapiens) (UniProt P45984); test: Inhibition of N-terminal GST-tagged JNK2 (1 to 364 residues) (unknown origin) expressed in Escherichia coli at 10 uM preincubated for 10 mins followed by peptide substrate addition relative to control
[19] = biological target: Proto-oncogene tyrosine-protein kinase receptor Ret (Homo sapiens) (UniProt P07949); test: Inhibition of RET (658 to 1114 residues) (unknown origin) expressed in Sf21 at 10 uM preincubated for 10 mins followed by peptide substrate addition relative to control
[20] = biological target: Wee1-like protein kinase (Homo sapiens) (UniProt P30291); test: Inhibition of Wee1 (215 to 646 residues) (unknown origin) expressed in Sf21 at 10 uM preincubated for 10 mins followed by peptide substrate addition relative to control
[21] = biological target: Signal transducer and activator of transcription 3 (Homo sapiens) (UniProt P40763); test: Inhibition of STAT3 promoter activity in human MDA-MB-231 cells at 0.5 uM incubated for 24 hrs by dual luciferase reporter assay; type: cell-based
MDA-MB-231 [22] = test: Induction of apoptosis in human MDA-MB-231 cells assessed as apoptotic cells at 2.5 uM measured after 24 hrs by annexinV-FITC/propidium iodide staining based flow cytometry analysis (reference value: 2.49%); type: functional
MDA-MB-231 [23] = test: Inhibition of colony formation in human MDA-MB-231 cells at 1 uM after 24 hrs followed by compound washout and subsequent incubation for 14 days by crystal violet staining based assay; type: functional, cell-based
MDA-MB-231 [24] = test: Inhibition of human MDA-MB-231 cells migration after 24 hrs by crystal violet staining based transwell migration assay; type: functional, cell-based; conditions: dose 0.1-1 µM
MDA-MB-231 [25] = test: Antitumor activity against human MDA-MB-231 cells xenografted in BALB/c nude mouse assessed as the inhibition of tumor growth at 30 mg/kg, ig administered every two days; type: functional, organism-based
[26] = biological target: Serine/threonine-protein kinase PAK 1 (Homo sapiens) (UniProt Q13153); test: Inhibition of full length N-terminal GST-tagged PAK1 (1 to 545 residues) (unknown origin) expressed in Sf21 at 10 uM preincubated for 10 mins followed by peptide substrate addition relative to control

Epidermal growth factor receptor (Homo sapiens), P00533 [T790M], sequence (P00533 whole entry T790M, the tested form may be a part): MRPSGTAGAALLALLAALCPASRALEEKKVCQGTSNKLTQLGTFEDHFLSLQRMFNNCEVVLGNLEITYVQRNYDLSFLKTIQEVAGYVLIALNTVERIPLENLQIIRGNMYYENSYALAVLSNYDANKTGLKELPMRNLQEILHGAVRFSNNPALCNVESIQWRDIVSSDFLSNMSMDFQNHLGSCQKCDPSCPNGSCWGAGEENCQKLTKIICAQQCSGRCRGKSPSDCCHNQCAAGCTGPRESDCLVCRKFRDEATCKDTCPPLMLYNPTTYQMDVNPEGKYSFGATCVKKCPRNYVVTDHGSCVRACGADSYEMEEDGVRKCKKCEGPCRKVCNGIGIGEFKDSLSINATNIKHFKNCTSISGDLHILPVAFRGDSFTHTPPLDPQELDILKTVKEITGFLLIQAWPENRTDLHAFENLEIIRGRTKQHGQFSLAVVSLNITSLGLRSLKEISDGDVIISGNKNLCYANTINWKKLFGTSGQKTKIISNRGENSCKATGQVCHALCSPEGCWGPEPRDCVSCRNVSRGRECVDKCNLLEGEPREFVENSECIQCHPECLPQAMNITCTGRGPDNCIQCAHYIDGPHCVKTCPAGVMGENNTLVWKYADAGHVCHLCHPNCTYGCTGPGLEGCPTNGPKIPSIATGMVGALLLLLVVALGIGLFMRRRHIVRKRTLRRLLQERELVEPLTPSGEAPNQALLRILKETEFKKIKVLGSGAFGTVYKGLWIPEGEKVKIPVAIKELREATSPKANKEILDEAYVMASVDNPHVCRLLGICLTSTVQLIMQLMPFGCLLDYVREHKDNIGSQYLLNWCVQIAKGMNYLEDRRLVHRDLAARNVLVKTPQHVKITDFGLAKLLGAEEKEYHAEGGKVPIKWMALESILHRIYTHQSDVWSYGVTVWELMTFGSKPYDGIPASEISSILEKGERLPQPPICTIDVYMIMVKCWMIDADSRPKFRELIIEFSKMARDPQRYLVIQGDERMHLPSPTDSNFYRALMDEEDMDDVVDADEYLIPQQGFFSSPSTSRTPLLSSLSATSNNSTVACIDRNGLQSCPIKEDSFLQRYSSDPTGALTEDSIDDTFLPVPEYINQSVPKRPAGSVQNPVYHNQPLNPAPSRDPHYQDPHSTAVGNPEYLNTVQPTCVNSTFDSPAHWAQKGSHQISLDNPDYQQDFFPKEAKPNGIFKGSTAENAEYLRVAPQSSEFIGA
Proto-oncogene tyrosine-protein kinase receptor Ret (Homo sapiens), sequence (P07949 whole entry, the tested form may be a part): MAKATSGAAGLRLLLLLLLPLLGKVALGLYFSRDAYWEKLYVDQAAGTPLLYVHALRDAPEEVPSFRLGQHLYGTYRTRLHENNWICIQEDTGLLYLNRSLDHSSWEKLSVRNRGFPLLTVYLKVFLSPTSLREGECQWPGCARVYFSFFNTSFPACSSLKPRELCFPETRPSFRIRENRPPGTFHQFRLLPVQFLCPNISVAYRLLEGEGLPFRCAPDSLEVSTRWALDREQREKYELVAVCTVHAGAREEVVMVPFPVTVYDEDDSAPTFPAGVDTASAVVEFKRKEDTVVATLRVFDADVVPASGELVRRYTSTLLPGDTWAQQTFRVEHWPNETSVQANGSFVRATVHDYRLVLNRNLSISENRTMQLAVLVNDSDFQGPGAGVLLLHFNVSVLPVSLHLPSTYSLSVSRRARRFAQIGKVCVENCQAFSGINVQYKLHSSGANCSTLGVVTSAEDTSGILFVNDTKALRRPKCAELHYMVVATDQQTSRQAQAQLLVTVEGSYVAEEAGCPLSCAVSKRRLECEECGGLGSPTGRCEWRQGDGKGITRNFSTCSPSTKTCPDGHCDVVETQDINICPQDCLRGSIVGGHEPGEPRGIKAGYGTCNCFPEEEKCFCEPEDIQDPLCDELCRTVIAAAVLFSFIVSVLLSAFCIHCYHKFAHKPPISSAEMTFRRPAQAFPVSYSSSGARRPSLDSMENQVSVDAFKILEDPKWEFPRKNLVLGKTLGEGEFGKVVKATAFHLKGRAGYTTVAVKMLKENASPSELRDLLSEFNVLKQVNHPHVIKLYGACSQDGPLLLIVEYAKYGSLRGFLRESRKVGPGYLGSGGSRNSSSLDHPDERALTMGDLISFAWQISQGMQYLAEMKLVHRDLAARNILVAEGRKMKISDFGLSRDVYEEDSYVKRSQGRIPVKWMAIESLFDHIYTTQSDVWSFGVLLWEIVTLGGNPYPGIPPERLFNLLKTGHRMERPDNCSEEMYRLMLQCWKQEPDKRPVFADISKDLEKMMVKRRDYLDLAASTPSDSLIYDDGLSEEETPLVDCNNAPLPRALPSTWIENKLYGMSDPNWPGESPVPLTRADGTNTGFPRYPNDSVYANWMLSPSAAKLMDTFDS
Receptor-type tyrosine-protein kinase FLT3 (Homo sapiens), sequence (P36888 whole entry, the tested form may be a part): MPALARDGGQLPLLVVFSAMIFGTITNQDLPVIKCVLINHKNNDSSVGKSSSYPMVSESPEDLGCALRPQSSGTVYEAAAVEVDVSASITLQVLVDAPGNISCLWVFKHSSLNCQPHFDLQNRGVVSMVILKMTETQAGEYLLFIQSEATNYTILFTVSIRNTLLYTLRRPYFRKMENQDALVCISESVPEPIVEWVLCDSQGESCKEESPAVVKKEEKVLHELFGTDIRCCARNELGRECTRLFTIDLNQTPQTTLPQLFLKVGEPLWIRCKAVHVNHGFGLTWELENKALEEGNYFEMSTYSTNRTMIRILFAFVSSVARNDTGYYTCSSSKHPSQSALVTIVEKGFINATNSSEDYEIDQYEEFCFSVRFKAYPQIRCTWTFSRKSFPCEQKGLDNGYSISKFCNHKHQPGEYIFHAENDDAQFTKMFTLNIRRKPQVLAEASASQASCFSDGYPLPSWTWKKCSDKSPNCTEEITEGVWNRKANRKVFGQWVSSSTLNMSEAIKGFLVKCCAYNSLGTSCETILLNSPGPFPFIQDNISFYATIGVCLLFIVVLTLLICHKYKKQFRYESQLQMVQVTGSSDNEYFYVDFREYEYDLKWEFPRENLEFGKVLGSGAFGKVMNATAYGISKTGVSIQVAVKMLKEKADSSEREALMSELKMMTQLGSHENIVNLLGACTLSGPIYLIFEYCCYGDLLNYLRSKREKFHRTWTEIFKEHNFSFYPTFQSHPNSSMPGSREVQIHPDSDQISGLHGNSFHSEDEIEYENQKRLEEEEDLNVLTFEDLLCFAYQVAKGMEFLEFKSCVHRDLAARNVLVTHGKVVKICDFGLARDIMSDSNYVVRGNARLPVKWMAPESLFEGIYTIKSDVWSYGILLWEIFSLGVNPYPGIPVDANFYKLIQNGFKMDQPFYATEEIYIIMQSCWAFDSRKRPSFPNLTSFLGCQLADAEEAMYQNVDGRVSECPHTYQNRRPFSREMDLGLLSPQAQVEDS
Dual specificity mitogen-activated protein kinase kinase 1 (Homo sapiens), sequence (Q02750 whole entry, the tested form may be a part): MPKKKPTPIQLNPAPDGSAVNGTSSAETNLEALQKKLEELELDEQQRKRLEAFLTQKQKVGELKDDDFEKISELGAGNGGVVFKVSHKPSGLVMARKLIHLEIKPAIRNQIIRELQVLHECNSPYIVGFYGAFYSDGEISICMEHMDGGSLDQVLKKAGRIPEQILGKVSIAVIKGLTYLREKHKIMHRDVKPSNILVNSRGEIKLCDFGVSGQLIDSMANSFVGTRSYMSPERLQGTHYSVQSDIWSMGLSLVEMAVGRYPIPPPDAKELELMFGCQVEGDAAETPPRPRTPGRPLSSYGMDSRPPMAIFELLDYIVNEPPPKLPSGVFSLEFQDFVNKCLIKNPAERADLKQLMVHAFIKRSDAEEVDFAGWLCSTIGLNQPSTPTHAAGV
Tyrosine-protein kinase JAK1 (Homo sapiens), sequence (P23458 whole entry, the tested form may be a part): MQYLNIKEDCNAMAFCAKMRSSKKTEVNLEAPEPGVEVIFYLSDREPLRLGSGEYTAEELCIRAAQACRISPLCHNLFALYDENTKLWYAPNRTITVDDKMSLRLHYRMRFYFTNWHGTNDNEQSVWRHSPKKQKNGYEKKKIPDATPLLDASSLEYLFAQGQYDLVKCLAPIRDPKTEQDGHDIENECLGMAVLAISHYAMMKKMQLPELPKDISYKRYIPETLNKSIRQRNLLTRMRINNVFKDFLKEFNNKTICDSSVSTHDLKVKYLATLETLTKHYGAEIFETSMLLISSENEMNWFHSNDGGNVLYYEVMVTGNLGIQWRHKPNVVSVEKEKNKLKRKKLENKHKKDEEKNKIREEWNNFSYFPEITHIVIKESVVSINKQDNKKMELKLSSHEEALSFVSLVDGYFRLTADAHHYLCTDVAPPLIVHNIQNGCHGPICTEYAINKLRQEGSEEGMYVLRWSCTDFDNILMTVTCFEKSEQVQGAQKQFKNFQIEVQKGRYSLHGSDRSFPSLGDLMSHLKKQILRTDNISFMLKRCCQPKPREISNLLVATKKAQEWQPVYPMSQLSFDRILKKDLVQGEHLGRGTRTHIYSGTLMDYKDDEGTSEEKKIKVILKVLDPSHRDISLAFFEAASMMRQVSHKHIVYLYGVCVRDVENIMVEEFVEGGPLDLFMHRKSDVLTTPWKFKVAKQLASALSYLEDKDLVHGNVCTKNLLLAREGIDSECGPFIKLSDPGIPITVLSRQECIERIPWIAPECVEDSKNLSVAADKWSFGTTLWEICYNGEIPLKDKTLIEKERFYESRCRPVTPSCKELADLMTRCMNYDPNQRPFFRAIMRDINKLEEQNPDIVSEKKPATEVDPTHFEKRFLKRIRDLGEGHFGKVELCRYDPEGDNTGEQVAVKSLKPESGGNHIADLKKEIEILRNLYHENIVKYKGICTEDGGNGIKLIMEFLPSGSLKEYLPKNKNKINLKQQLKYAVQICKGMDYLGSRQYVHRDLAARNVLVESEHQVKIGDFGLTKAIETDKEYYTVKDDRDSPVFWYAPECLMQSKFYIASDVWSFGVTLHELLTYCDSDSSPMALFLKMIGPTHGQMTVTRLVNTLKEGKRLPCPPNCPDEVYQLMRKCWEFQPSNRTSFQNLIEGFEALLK

- IC50 (MDA-MB-231 [3]): 610 nM
- IC50 (HCT-116 [4]): 690 nM
- inhibition [5]: 2.23%
- inhibition [6]: 2.99%
- inhibition [7]: 4.24%
- inhibition [8]: -1.53%
- inhibition [9]: 3.58%
- inhibition [10]: 3.48%
- inhibition [11]: 3.38%
- inhibition [12]: 4.33%
- inhibition [13]: 10.2%
- inhibition [14]: 1.56%
- inhibition [15]: 6.45%
- inhibition [16]: 2.93%
- inhibition [17]: 2.87%
- inhibition [18]: 4.16%
- inhibition [19]: -7.23%
- inhibition [20]: 4.76%
- inhibition [21]: 80.6%
- inhibition [26]: 9.32%
Structure (SMILES): CC(C)(C)OC(=O)c1ccc(NC(=O)c2ccc(Cl)c(S(N)(=O)=O)c2)cc1
- inhibition at 10 µM (MDA-MB-231 [1]): 93%
- inhibition at 10 µM (HCT-116 [2]): 85.3%
- inhibition at 10 µM (SW480): 80.9%
- inhibition at 10 µM (L3.6pl): 21.9%
- Activity (MDA-MB-231 [22]): 16.01%
- inhibition (MDA-MB-231 [23]): Active
- inhibition (MDA-MB-231 [24]): Dose-Dependent Effect
- Activity (MDA-MB-231 [25]): Active
